Data taken from patent US20240148714A1, “Triple Negative Breast Cancer Treatment Method” (Exelixis, Inc., priority 2016, published 2024).
Values joined by “and” are separate entries in the source; they are usually repeats but may differ in a detail not shown here. Equal entries are not always repeated.

Test system: metastatic TNBC
Assay: Phase II study of cabozantinib in metastatic TNBC: objective response (RECIST 1.1), clinical benefit, PFS
Type: in vivo, human
Description: Experimental design: In this single-arm, two-stage phase 2 study, patients with metastatic TNBC with measurable disease by RECIST and up to 3 lines of prior chemotherapy for metastatic disease received cabozantinib 60 mg daily on a 21-day cycle. Patients were restaged 6 weeks following treatment initiation and every 9 weeks thereafter. The primary endpoint was objective response rate (ORR). Predefined secondary endpoints included progression free survival (PFS) and toxicity. Here, we examined cellular biomarkers using flow cytometry in serial blood samples collected at days 0 (baseline/pre-treatment), 8, 22, 43, and 64 of cabozantinib treatment. Mixed effect models were used to evaluate the changes of biomarker levels over time from baseline to day 64. Wilcoxon signed rank test were used to evaluate whether the change of biomarker levels from baseline to day 8 were different by clinical benefit. Adjusted p-values controlling false discovery rate were used to adjust for multiple comparisons.
Study Design and Treatment: As indicated, this was a single-arm, two-stage phase II study assessing the efficacy of cabozantinib monotherapy in patients with mTNBC. Treatment consisted of oral dosing of cabozantinib at 60 mg daily over a 21-day cycle. Patients underwent radiographic restaging at 6 weeks and every 9 weeks thereafter. Patients with complete or partial RECIST responses continued to receive study treatment, whereas those with progressive disease were taken off study. Dose reductions for toxicity occurred if patients experienced grade 3 or 4 neutropenia or thrombocytopenia, or nonhematologic adverse events. From the starting dose of 60 mg daily, doses were reduced as needed to 40 and 20 mg daily. For the purposes of determining the effect of cabozantinib treatment on pain and analgesic medication use, pain was assessed by a participant-reported questionnaire, and daily analgesic medication usage was recorded. These were completed at baseline and during week 3, 6, and every 6 weeks thereafter until the date of the participant's last follow-up visit.
The primary endpoint was the activity of cabozantinib, as defined by objective response rate (ORR) in patients with mTNBC. Predefined secondary endpoints included progression-free survival (PFS), toxicity, and pain. Correlative studies included analysis of MET and phospho-MET expression in archival tumor tissue, and molecular and cellular biomarkers of cabozantinib. Cellular biomarkers were examined using flow cytometry in serial blood samples collected at days 0 (baseline/pre-treatment), 8, 22, 43, and 64 of cabozantinib treatment. Mixed effect models were used to evaluate the changes of biomarker levels over time from baseline to day 64. Wilcoxon signed rank test were used to evaluate whether the change of biomarker levels from baseline to day 8 were different by clinical benefit. Adjusted p-values controlling false discovery rate were used to adjust for multiple comparisons.
Statistical Analysis: This study used Simon optimal two-stage design to control type I error at 10% and have at least 90% power to detect the acceptable response rate. By study design, 13 participants were to be enrolled in the first stage. If there was at least 1 response, accrual was to continue to the second stage, where an additional 22 patients were to be enrolled. If there were at least 4 responses among the 35 total patients, the regimen was to be considered worthy of further study. With a true response rate of 5%, the chance that the regimen would be declared worthy of further study was 10%, and with a true response rate of 20%, the chance that the regimen would be declared worthy of further study was 90%.
Objective response was evaluated by using RECIST1.1. […] Objective response rate was reported with 95% confidence interval (CI) for the two stage designs. PFS and 95% CI were described using Kaplan-Meier methods. […]

SMILES: COc1cc2nccc(Oc3ccc(NC(=O)C4(C(=O)Nc5ccc(F)cc5)CC4)cc3)c2cc1OC [cabozantinib]
- clinical benefit rate (PR+SD) at 15 weeks (60 mg daily, 35 patients): 34%
- median PFS (60 mg daily, 35 patients): 2.0 months
- objective response rate (ORR) (60 mg daily, 35 patients, as previously reported (ASCO 2015)): 11%
- objective response rate (ORR) (60 mg daily, 35 patients, confirmed PR, RECIST 1.1): 9%
- time on treatment of individual patients with PR (17 cycles and 8 cycles of protocol therapy): 11.7 months and 6.5 months
- Best overall response: Not evaluated due to toxicity (35 patients): 1 (3) n (%)
- Best overall response: PD (35 patients): 11 (31) n (%)
- Best overall response: PR (35 patients): 3 (9) n (%)
- Best overall response: SD (35 patients): 20 (57) n (%)
- Best overall response: SD <15 weeks (35 patients): 11 (31) n (%)
- Best overall response: SD ≥15 weeks (35 patients): 9 (26) n (%)
- median PFS (high baseline sMET (>795 ng/mL median value)): 3.3 months
- patients off treatment due to progressive disease (human, in vivo): 91%
- patients with clinically progressive disease before protocol specified tumor assessment (included in PD): ^aIncluding 7 patients(20%) with clinically progressive disease before protocol specified tumor assessment.
- median PFS (low baseline sMET (<795 ng/mL)): 1.3 months
- patients who achieved PR (of 35 patients): 3 patients
